Earlier results on two molecules are cited in patent publication US20260256788A1, “COMPOSITIONS COMPRISING MELATONIN, 5-FLUOROURACIL AND DIMETHYL SULFOXIDE FOR USE IN THE TREATMENT OF ACTINIC KERATOSIS” (RepoCeuticals A/S, priority 2023, published 2026).

Molecules are shown by their SMILES. Some results are limits rather than exact numbers.

Assay in data set [1]: not given
This is another data set of the same source.

As to `COc1ccc2[nH]cc(CCNC(C)=O)c2c1` [melatonin, N-acetyl-5-methoxytryptamine], the “solubility of melatonin in DMSO” value (in DMSO at room temperature) was ≥ 232 mg/mL.

As to `O=c1[nH]cc(F)c(=O)[nH]1` [5-FU, 5-fluoro-2,4(1H;3H)-pyrimidinedione], the “solubility in water” value in data set [1] is recorded as “only sparingly soluble”. Further, the “solubility in DMSO” value (in DMSO) is reported as “very soluble”.
